{
  "source": "patent US8063029B2",
  "about": "“Pharmaceutical composition” (FCB I LLC, priority 2002, dated 2011)",
  "key": {"[1]": {"conditions": "in vivo; cited from earlier work"}, "[2]": {"assay": "Solubility / miscibility in carrier fluids", "assay_type": "physicochemical", "excerpt": "In such situations, when the first fluid evaporates, the compound of interest is left in a supersaturated environment in which it is favorable for the compound to pass into a less saturated environment, in this case through the membrane. […] Accordingly, if increased flux for oxacyclohexadecan-2-one is desired, a carrier may include ethanol and propylene glycol and/or water. […] Accordingly, if increased flux for testosterone is desired, a carrier may include ethanol and water or ethanol and propylene glycol. In addition, water may be used to prevent “reverse-flux”, or the flow of water from the membrane into the matrix of the composition."}},
  "data": [
    {"smiles": "C[C@]12CC[C@H]3[C@@H](CCC4=CC(=O)CC[C@@]43C)[C@@H]1CC[C@@H]2O", "note": "[testosterone, 17β-hydroxyandrost-4-en-3-one]", "values": [
      {"measurement": "typical half-life in the blood serum", "setting": "[1]", "result": "10 to 100", "unit": "min"},
      {"measurement": "solubility / miscibility", "setting": "[2]; in ethanol", "result": "soluble"},
      {"measurement": "solubility / miscibility", "setting": "[2]; in propylene glycol", "result": "partially soluble"},
      {"measurement": "solubility / miscibility", "setting": "[2]; in water", "result": "not soluble"}
    ]}
  ]
}
